“Also recorded” adds a separate entry of the source.
Columns and labels:
[1] = target: T1, equine oxy-Mb (Equus caballus, UniProt P68082); assay: O2 release kinetics from oxy-Mb (Oxytherm+ respirometer); type: biochemical
T1 construct: Horse heart muscle myoglobin (Mb), chicken egg white lysozyme, sodium lactate (LAC), and sodium dithionite were purchased from Sigma Aldrich; purchased Sigma Aldrich, St. Louis, MO, USA; host or cells: horse heart muscle
Procedure: Figure 4 Effect of lactate binding to oxy-Mb and O2 release kinetics. Oxygen kinetics is studied using Oxytherm+ respirometer. All experiments were performed with 50 mM sodium phosphate buffer (pH 7.0, pH 6.4, and pH 6.0) containing 150 µM equine oxy-Mb and varying concentrations of lactate (0.625 mM to 2.5 mM) and oxy-Mb alone as a control. (a) A representative graph showing addition of lactate eliciting a rapid release of O2 from oxy-Mb at pH 6.4. Arrows in the figure indicate the point of addition of oxy-Mb and LAC into buffer during the run. (b) Rate of release of O2 from Mb against lactate concentrations with buffers (pH 7.0, pH 6.4, and pH 6.0). […] All O2 kinetic experiments were repeated 3 times (n = 3). Statistical analysis was performed using one-way ANOVA and the Tukey–Kramer post hoc test. […] Among all the test groups, only statistically […] groups are shown with horizontal lines and two asterisks.
The O2 concentrations (release and binding) during the ligand interactions with Mb in the solution were measured using Oxytherm+ liquid-phase oxygen electrode system (Hansatech Instruments, Norfolk, UK). The Oxytherm+ respirometer is an advanced instrument routinely used for respiration studies.
The measurement of dissolved O2 is calculated at the given temperature and atmospheric pressure according to the following equation [64]: Cs = 14.16 − (0.394 × T) + (0.007714 × T^2) − (0.0000646 × […])(3) where Cs is the saturated O2 concentration in ppm and T is the temperature in °C.
1 ppm is equivalent to 1 µg/mL or (1 µg/32 g/mol) = 0.03125 µmol/mL or 31.25 nmol/mL.
Similarly, deoxy-Mb protein alone (i.e., without LAC) was also tested. All the experiments were carried out at a constant temperature of 25 °C using a Peltier thermostat. The solutions were mixed at 50 rpm using a small magnetic stirring bar placed inside the sample container. Samples were injected into the buffer solution (50 mM sodium phosphate) at varying pH levels (pH 6.0–7.0) using a Hamilton glass syringe (1cc) after achieving equilibrium. Ligand was added to the Mb protein. Appropriate buffer controls voiding either Mb or LAC were used to nullify any artefacts. O2 kinetic experiments were also performed. All the kinetic experiments were performed 3 times (n = 3) and data obtained from statistical analysis are presented here.

[2] = target: deoxy-Mb; parameters: method as in PMID 8663546; conditions: pH 6.5, spectrophotometric, tonometry; cited from earlier work
[3] = target: T2, equine deoxy-Mb (Equus caballus, UniProt P68082); assay: ITC binding of lactate to deoxy-Mb; conditions: for Kd: n = 5; for c value: c = nKa[M]t; for ΔS°: from ΔG = ΔH − TΔS
T2 construct: Horse heart muscle myoglobin (Mb), chicken egg white lysozyme, sodium lactate (LAC), and sodium dithionite were purchased from Sigma Aldrich; purchased Sigma Aldrich, St. Louis, MO, USA; host or cells: horse heart muscle
Procedure: (§1) Preparations enriched in oxygenated and deoxygenated forms of Mb were prepared as described by our earlier publication related to Mb interaction with fatty acids and acylcarnitines. Briefly, 500 µM of Mb was dissolved in 50 mM sodium phosphate buffer of desired test pH. To promote conversion of ferric (Fe^3+) to ferrous (Fe^2+) iron, 3 mM of sodium dithionite was added to the protein solution with gentle mixing. Thereafter, the solution was subjected to a desalting column to remove the reducing agent and to remove the interference, particularly in O2 release kinetics and UV-Vis spectroscopy absorbance peaks. […] Thereafter, purging the protein solution enriched in oxy- and deoxy-Mb with either O2 or N2 gas, respectively, was performed continuously for 10 min. Formation of oxy- and deoxy-Mb were confirmed based on their characteristic peaks using UV-visible spectroscopy. All the experiments were performed in three different pH conditions (7.0, 6.4, and 6.0), mimicking intracellular physiological and acidic pH states that would be typically observed in skeletal muscle cells in “rested” and “active” (hyperlactatemia) conditions.
(§2) Protein-ligand binding experiments were performed using isothermal titration calorimetry (ITC) (Microcal PEAQ-ITC, Malvern, Chester County, PA, USA). Before starting the experiment, both the ligand solution and the protein solution were purged with either O2 or N2 for 10 min. Both the protein and LAC solutions were thermally equilibrated to 25 °C prior to the start of the titration. LAC was loaded in the […] at an initial concentration of 50 µM and titrated against 500 µM of either oxy- or deoxy-Mb solution, maintaining a 1:10 ratio between ligand and protein. To obtain the working c-value between 10 ≤ c ≤ 500 [51], different protein to ligand molar ratios (1:2, 1:5, 1:10, and 1:20) were tested, and based on the c-value, the molar ratio of 1:10 was selected for all ITC binding studies. A total of 19 injections (2 µL each) from the syringe were used to generate the ITC curves within each experiment. During the experimental run, the samples were mixed thoroughly at a constant stirring rate of 750 rpm. Between each injection, a 150 s gap was maintained to achieve a stable baseline. Data obtained from the ITC experiments were best fit to a one set of binding sites model provided by Microcal PEAQ-ITC software (version 1.40). Heats of dilution and heats caused by potential products formed during the course of the ITC experiments were corrected by performing appropriate blank titrations, consisting of (a) either oxy- or deoxy-Mb in the test buffer solution, (b) test buffer in the LAC, and (c) buffer-buffer solution. Lysozyme was used as a negative control protein in the protein-ligand binding experiments. All the binding experiments were performed 5 times (n = 5) and data obtained from statistical analysis are presented here.
(§3) The change in entropy (ΔS) was calculated using the equation: ΔG = ΔH − TΔS(1) where ΔG represents the change in Gibbs free energy, ΔH is the change in enthalpy, and T is the absolute temperature.
(§4) c values were calculated using the equation:c = nKa[M]t(2) where n is the number of binding sites per receptor (macromolecule), [M]t is macromolecule concentration, and Ka is the association constant.

[4] = target: T3, oxy-Mb (Equus caballus, UniProt P68082); assay: Time-resolved UV-Vis spectroscopy of LAC-incubated oxy-Mb; parameters: species or system horse; conditions: all the test pH conditions
T3 construct: Horse heart muscle myoglobin (Mb), chicken egg white lysozyme, sodium lactate (LAC), and sodium dithionite were purchased from Sigma Aldrich; purchased Sigma Aldrich, St. Louis, MO, USA; host or cells: horse heart muscle
Procedure: (§5) The change in the spectral characteristics of Mb alone and LAC-bound Mb were recorded using UV-Vis spectroscopy (Polarstar Omega, BMG Labtech, ortenberg, Germany). All the sample preparations and the concentrations used were similar to the ITC experiments. After degassing Mb and LAC samples either with O2 or N2 gas in sealed vials, appropriate volumes of the samples were collected using a Hamilton glass syringe (1cc), mixed in a glass cuvette, and sealed immediately; time-resolved spectra were recorded immediately at 25 °C for a period of 75 min. All spectral data were collected at 5 min time intervals. All the spectral experiments were performed 3 times (n = 3).

[5] = target: T4, deoxy-Mb (Equus caballus, UniProt P68082); assay: Time-resolved UV-Vis spectroscopy of LAC-incubated deoxy-Mb; parameters: species or system horse; conditions: data not shown
T4 construct: Horse heart muscle myoglobin (Mb), chicken egg white lysozyme, sodium lactate (LAC), and sodium dithionite were purchased from Sigma Aldrich; purchased Sigma Aldrich, St. Louis, MO, USA; host or cells: horse heart muscle
Procedure: as §5

[6] = target: T1, equine oxy-Mb; assay: ITC binding of lactate to oxy-Mb; conditions: for Kd: n = 5; for c value: c = nKa[M]t; for ΔS°: from ΔG = ΔH − TΔS
Procedure: as §1, §2, §3, §4

[7] = target: oxy-Mb; parameters: method as in PMID 8663546; conditions: pH 6.5, spectrophotometric, tonometry; cited from earlier work
[8] = target: T5, chicken egg white lysozyme (Gallus gallus, UniProt P00698); assay: ITC binding of LAC to negative control protein lysozyme; conditions: all tested pH conditions (pH 7.0, 6.4, 6.0)
T5 construct: Horse heart muscle myoglobin (Mb), chicken egg white lysozyme, sodium lactate (LAC), and sodium dithionite were purchased from Sigma Aldrich; purchased Sigma Aldrich, St. Louis, MO, USA; host or cells: chicken egg white
Procedure: Horse heart muscle myoglobin (Mb), chicken egg white lysozyme, sodium lactate (LAC), and sodium dithionite were purchased from Sigma Aldrich, St. Louis, MO, USA. All other chemicals used in the experiments are of analytical grade and were also procured from Sigma Aldrich, St. Louis, MO, USA.
Protein-ligand binding experiments were performed using isothermal titration calorimetry (ITC) (Microcal PEAQ-ITC, Malvern, Chester County, PA, USA). Before starting the experiment, both the ligand solution and the protein solution were purged with either O2 or N2 for 10 min. Both the protein and LAC solutions were thermally equilibrated to 25 °C prior to the start of the titration. LAC was loaded in the […] at an initial concentration of 50 µM and titrated against 500 µM of either oxy- or deoxy-Mb solution, maintaining a 1:10 ratio between ligand and protein. To obtain the working c-value between 10 ≤ c ≤ 500 [51], different protein to ligand molar ratios (1:2, 1:5, 1:10, and 1:20) were tested, and based on the c-value, the molar ratio of 1:10 was selected for all ITC binding studies. A total of 19 injections (2 µL each) from the syringe were used to generate the ITC curves within each experiment. During the experimental run, the samples were mixed thoroughly at a constant stirring rate of 750 rpm. Between each injection, a 150 s gap was maintained to achieve a stable baseline. […]

[9] = pH 6.4, 25 °C, listed as lactate

T1 sequence (P68082 whole entry): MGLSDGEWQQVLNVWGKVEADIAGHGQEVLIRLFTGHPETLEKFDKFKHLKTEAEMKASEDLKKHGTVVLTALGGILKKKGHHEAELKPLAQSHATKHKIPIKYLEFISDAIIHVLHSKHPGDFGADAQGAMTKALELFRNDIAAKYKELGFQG
T2 sequence (P68082 whole entry): as above
T5 sequence (P00698 19-147): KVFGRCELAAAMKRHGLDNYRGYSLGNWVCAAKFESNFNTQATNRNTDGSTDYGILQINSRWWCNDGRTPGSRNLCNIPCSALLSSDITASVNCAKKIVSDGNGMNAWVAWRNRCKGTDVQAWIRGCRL
T4 sequence (P68082 whole entry): as the sequence (P68082 whole entry) above
T3 sequence (P68082 whole entry): as above

Structure (SMILES): CC(O)C(=O)[O-].[Na+] (stereo not drawn) [LAC, sodium lactate]
- O2 release compared to oxy-Mb alone ([1]; 0.625 mM LAC, pH 6.0): no significance difference
- maximum rate of O2 release ([1]; 2.5 mM LAC, pH 6.4 buffer, 25 °C): 72 nmol/min/g protein
- O2 release rate constant ([1]; pH 6.0): 0.04 mM LAC/nM O2 release
- O2 release rate constant ([1]; pH 6.4): 0.029 mM LAC/nM O2 release
- O2 release rate constant ([1]; pH 7.0): 0.537 mM LAC/nM O2 release
- Kd [2]: 2500 µM
- No. of binding sites ([3]; pH 6.0): 0.8 ± 0.02 ^a2
- ΔH° ([3]; pH 6.0): 12.6 ± 0.4 ^d3 kcal mol^−1
- Kd ([3]; pH 6.0, 25 °C): 6.4 ± 0.2 µM
- c value ([3]; pH 6.0): 61.2 ± 0.9 ^b1
- ΔS° ([3]; pH 6.0): 0.1 ± 0.0 ^d3 cal mol^−1 K^−1
- No. of binding sites ([3]; pH 6.4): 0.8 ± 0.03 ^a1
- ΔH° ([3]; pH 6.4): 149.5 ± 13.0 ^b1 kcal mol^−1
- Kd ([3]; pH 6.4, 25 °C): ~14 µM
- Kd [3, 9]: 13.7 ± 1.6 µM
- c value ([3]; pH 6.4): 30.4 ± 4.6 ^c1
- ΔS° ([3]; pH 6.4): 0.55 ± 0.03 ^b1 cal mol^−1 K^−1
- Ka at pH 6.4 relative to pH 6.0 ([3]; pH 6.4 vs pH 6.0): ~ 2 fold
- binding of LAC (ITC) ([3]; pH 7.0): No detectable binding
- No. of binding sites ([3]; pH 7.0, NDB: no detectable binding): NDB
- change in UV-Vis spectral data [4]: no change in spectral data
- change in UV-Vis spectral data [5]: marginal changes in the heme peak absorbance (435 nm)
- No. of binding sites ([6]; pH 6.0): 1.0 ± 0.06 ^a2
- ΔH° ([6]; pH 6.0): 34 ± 3.5 ^c2 kcal mol^−1
- Kd ([6]; pH 6.0, 25 °C): 1.9 ± 0.2 µM
- ΔG ([6]; pH 6.0, printed as Mb+LAC complex): -7.8 kcal/mol
- c value ([6]; pH 6.0): 267.9 ± 30.4 ^d2
- ΔS° ([6]; pH 6.0): 0.14 ± 0.01 ^c2 cal mol^−1 K^−1
- No. of binding sites ([6]; pH 6.4): 0.8 ± 0.03 ^a1
- ΔH° ([6]; pH 6.4): 151.5 ± 18.5 ^b1 kcal mol^−1
- Kd ([6]; pH 6.4, 25 °C): ~7 µM
- Kd [6, 9]: 6.9 ± 1.1 µM
- ΔG ([6]; pH 6.4, oxy-Mb+LAC complex): -6.9 kcal/mol
- c value ([6]; pH 6.4): 67.5 ± 15.5 ^b1
- ΔS° ([6]; pH 6.4): 0.5 ± 0.06 ^b1 cal mol^−1 K^−1
- Ka ([6]; pH 7.0): 0.05 µM⁻¹
- No. of binding sites ([6]; pH 7.0): 0.9 ± 0.7 ^b*
- ΔG ([6]; pH 7.0): -6.2 kcal/mol
- ΔH° ([6]; pH 7.0): −53.1 ± 0.3 ^a* kcal mol^−1
- Kd ([6]; pH 7.0, 25 °C): 20.7 ± 2.7 µM
- c value ([6]; pH 7.0): 22.4 ± 1.4 ^a
- ΔS° ([6]; pH 7.0): −0.15 ± 0.01 ^a* cal mol^−1 K^−1
- increase of Ka with drop in pH ([6]; pH 7.0 to pH 6.0): ~ 3 fold
- Kd [7]: 26000 µM
- binding of LAC (ITC) [8]: no detectable binding; also recorded: did not bound
